Data taken from patent publication US12655458B2, “Methods for cyclization of (poly)peptides comprising nγ-hydroxy- or Nγ-amino-L-asparagine” (priority 2021, dated 2026).
Positions of bridges follow the written chain, without caps; N, C: chain ends. Residues, ends and D or L forms follow the SMILES beside them.

Legend:
MMP9 = biological target: T1, MMP9 (Homo sapiens, UniProt P14780); experiment: MMPs inhibition assay (FRET substrate), MMP9; format: biochemical
T1 construct: purchased Sigma-Aldrich
T1 sequence (P14780 94-707, species assumed): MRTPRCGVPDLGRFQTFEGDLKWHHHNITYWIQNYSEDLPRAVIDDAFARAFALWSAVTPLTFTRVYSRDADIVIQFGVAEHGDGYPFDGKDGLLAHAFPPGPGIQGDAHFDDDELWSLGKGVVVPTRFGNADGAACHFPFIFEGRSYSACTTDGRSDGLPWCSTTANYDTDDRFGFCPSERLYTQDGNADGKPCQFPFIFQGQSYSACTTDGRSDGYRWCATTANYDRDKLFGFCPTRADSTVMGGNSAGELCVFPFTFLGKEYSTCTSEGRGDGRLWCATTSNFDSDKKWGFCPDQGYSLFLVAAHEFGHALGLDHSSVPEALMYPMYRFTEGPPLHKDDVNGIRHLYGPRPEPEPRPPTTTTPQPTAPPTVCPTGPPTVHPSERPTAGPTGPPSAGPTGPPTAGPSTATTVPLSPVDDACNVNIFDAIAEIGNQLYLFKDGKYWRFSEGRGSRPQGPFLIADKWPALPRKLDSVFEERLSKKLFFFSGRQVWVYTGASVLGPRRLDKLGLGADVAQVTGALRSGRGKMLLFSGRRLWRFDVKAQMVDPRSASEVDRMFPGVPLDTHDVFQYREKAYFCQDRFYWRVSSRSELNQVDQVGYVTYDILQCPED
Description: (§1) The inhibitory activity of the peptides was determined by measuring the MMPs' protease activity towards a FRET substrate. 0.8 nM MMP2 or MMP9 (Sigma-Aldrich), 10 μM substrate (FAM-Lys-Pro-Leu-Gly-Leu-Lys(Dabcyl)-Ala-Arg-NH2, λex 490 nm; λem 520 nm) and various concentrations of the peptides (0.0001 μM-10 μM or 0.001 μM-100 μM) were used. The reactions were performed in 50 mM Tris-HCl buffer (pH 7.5) containing 150 mM NaCl, 10 mM CaCl2, 0.05% Brij35, at 37° C. MMP2 was pre-incubated with the peptide inhibitors for 10 min before adding the substrate. All the numbers were input into GraphPad Prism (GraphPad Software, San Diego) for IC50 calculation.

MMP2 = biological target: T2, MMP2 (Homo sapiens, UniProt P08253); experiment: MMPs inhibition assay (FRET substrate), MMP2; format: biochemical
T2 construct: purchased Sigma-Aldrich
T2 sequence (P08253 110-660): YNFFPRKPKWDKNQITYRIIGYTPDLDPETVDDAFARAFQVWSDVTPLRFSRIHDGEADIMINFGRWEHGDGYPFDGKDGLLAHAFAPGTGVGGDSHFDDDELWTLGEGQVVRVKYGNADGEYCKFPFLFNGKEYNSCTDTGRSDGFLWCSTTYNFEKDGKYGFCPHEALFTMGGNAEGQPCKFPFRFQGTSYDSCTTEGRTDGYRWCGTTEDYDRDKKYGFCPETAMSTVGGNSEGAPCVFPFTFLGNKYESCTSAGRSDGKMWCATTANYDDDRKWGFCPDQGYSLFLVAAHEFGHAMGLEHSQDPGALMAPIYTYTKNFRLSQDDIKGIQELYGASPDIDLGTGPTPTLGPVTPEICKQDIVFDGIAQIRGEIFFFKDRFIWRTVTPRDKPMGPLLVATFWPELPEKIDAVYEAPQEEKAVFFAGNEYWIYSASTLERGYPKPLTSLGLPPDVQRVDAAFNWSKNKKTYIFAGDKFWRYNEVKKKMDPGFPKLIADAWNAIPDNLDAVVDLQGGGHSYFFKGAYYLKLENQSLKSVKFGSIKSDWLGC
Description: as §1

Compound: CC[C@H](C)[C@@H]1NC(=O)[C@@H]2CSSC[C@H](NC(=O)[C@H](CCCNC(=N)N)NC(=O)[C@@H]3CSSC[C@H](NC1=O)C(=O)N[C@@H]([C@@H](C)O)C(=O)N[C@@H](CCCNC(=N)N)C(=O)NCC(=O)N[C@@H](Cc1ccccc1)C(=O)N3)C(=O)N[C@@H](CC(C)C)C(=O)N[C@H]1CSSC[C@H](NC(=O)[C@H](C(C)C)NC(=O)CNC(=O)[C@H](CCCNC(=N)N)NC(=O)[C@H](CCCNC(=N)N)NC1=O)C(=O)N[C@@H](CCCNC(=N)N)C(=O)N2 [Peptide 16, reference compound] (cyclo(GFCRCLCRRGVCRCICTR); disulfide 3-16, 5-14, 7-12 (inferred); ring closure inferred)
- Ki (MMP9): > 10 µM
- Ki (MMP2): 60 ± 10.4 nM
